Assay results reported in ChEMBL document CHEMBL3885881, “DrugMatrix”.

Organism: Rattus norvegicus
Experiment: DrugMatrix - Regimen: Daily Repeat
Type: toxicity, organism-based, Sprague-Dawley
Set-up: regimen Daily Repeat, gender Male, age 6-8 weeks
Details: in vivo, po, 310 mg/kg, route oral GAVAGE, dose level High, vehicle .5 % CMC; for ABSOLUTE BASOPHIL / ABSOLUTE EOSINOPHIL / ABSOLUTE LYMPHOCYTE / ABSOLUTE MONOCYTE / ABSOLUTE SEGMENTED NEUTROPHIL / BASOPHIL / EOSINOPHIL / ERYTHROCYTE COUNT / HEMATOCRIT / HEMOGLOBIN / LEUKOCYTE COUNT / LYMPHOCYTE / MEAN CORPUSCULAR HEMOGLOBIN / MEAN CORPUSCULAR HEMOGLOBIN CONCENTRATION / MEAN CORPUSCULAR VOLUME / MONOCYTE / NEUTROPHIL / NUCLEATED RED BLOOD CELLS / PLATELET COUNT: tissue Blood; for ALANINE AMINOTRANSFERASE / ALBUMIN / ALKALINE PHOSPHATASE / ASPARTATE AMINOTRANSFERASE / BLOOD UREA NITROGEN / CARBON DIOXIDE / CHLORIDE / CHOLESTEROL / CREATINE PHOSPHOKINASE / CREATININE / GLUCOSE / LACTATE DEHYDROGENASE / LIPASE / PHOSPHORUS / POTASSIUM / SODIUM / TOTAL BILIRUBIN / TOTAL PROTEIN / URIC ACID: tissue Plasma

## O=C1CN=C(c2ccccc2)c2cc([N+](=O)[O-])ccc2N1 [NITRAZEPAM]
72 h, time 3 day
  ABSOLUTE BASOPHIL: 0 CELLS/uL
  ABSOLUTE EOSINOPHIL: 0 CELLS/uL
  ABSOLUTE LYMPHOCYTE: 11568.33 CELLS/uL
  ABSOLUTE MONOCYTE: 226.67 CELLS/uL
  ABSOLUTE SEGMENTED NEUTROPHIL: 871.67 CELLS/uL
  BASOPHIL: 0%
  EOSINOPHIL: 0%
  ERYTHROCYTE COUNT: 5.41 x10E6/uL
  HEMATOCRIT: 34%
  HEMOGLOBIN: 13.63 G/DL
  LEUKOCYTE COUNT: 12.67 x10E3/uL
  LYMPHOCYTE: 90.67%
  MEAN CORPUSCULAR HEMOGLOBIN: 25.23 pg
  MEAN CORPUSCULAR HEMOGLOBIN CONCENTRATION: 40.1 G/DL
  MEAN CORPUSCULAR VOLUME: 62.87 fL
  MONOCYTE: 1.67%
  NEUTROPHIL: 7.67%
  NUCLEATED RED BLOOD CELLS: 0 /100WBC
  PLATELET COUNT: 1116 x10E3/uL
  ALANINE AMINOTRANSFERASE: 48 u/L
  ALBUMIN: 4.03 G/DL
  ALKALINE PHOSPHATASE: 270 u/L
  ASPARTATE AMINOTRANSFERASE: 93.33 u/L
  BLOOD UREA NITROGEN: 15.67 mg/dL
  CARBON DIOXIDE: 27.67 mmol/L
  CHLORIDE: 100 MEQ/L
  CHOLESTEROL: 88.67 mg/dL
  CREATINE PHOSPHOKINASE: 222.67 u/L
  CREATININE: 0.17 mg/dL
  GLUCOSE: 150.33 mg/dL
  LACTATE DEHYDROGENASE: 150.67 u/L
  LIPASE: 8 u/L
  PHOSPHORUS: 11.93 mg/dL
  POTASSIUM: 6.17 MEQ/L
  SODIUM: 143.67 MEQ/L
  TOTAL BILIRUBIN: 0.2 mg/dL
  TOTAL PROTEIN: 5.7 G/DL
  URIC ACID: 1.3 mg/dL
120 h, time 5 day
  ABSOLUTE BASOPHIL: 0 CELLS/uL
  ABSOLUTE EOSINOPHIL: 37.33 CELLS/uL
  ABSOLUTE LYMPHOCYTE: 8871.33 CELLS/uL
  ABSOLUTE MONOCYTE: 96.67 CELLS/uL
  ABSOLUTE SEGMENTED NEUTROPHIL: 1228 CELLS/uL
  BASOPHIL: 0%
  EOSINOPHIL: 0.33%
  ERYTHROCYTE COUNT: 6.24 x10E6/uL
  HEMATOCRIT: 37.73%
  HEMOGLOBIN: 14.83 G/DL
  LEUKOCYTE COUNT: 10.23 x10E3/uL
  LYMPHOCYTE: 86.67%
  MEAN CORPUSCULAR HEMOGLOBIN: 23.77 pg
  MEAN CORPUSCULAR HEMOGLOBIN CONCENTRATION: 39.33 G/DL
  MEAN CORPUSCULAR VOLUME: 60.47 fL
  MONOCYTE: 1%
  NEUTROPHIL: 12%
  NUCLEATED RED BLOOD CELLS: 0 /100WBC
  PLATELET COUNT: 1180.33 x10E3/uL
  ALANINE AMINOTRANSFERASE: 39.67 u/L
  ALBUMIN: 4.13 G/DL
  ALKALINE PHOSPHATASE: 195.33 u/L
  ASPARTATE AMINOTRANSFERASE: 76.33 u/L
  BLOOD UREA NITROGEN: 17.33 mg/dL
  CARBON DIOXIDE: 26.33 mmol/L
  CHLORIDE: 104 MEQ/L
  CHOLESTEROL: 87.67 mg/dL
  CREATINE PHOSPHOKINASE: 160 u/L
  CREATININE: 0.19 mg/dL
  GLUCOSE: 148.67 mg/dL
  LACTATE DEHYDROGENASE: 101 u/L
  LIPASE: 40.67 u/L
  PHOSPHORUS: 9.83 mg/dL
  POTASSIUM: 6.59 MEQ/L
  SODIUM: 145.77 MEQ/L
  TOTAL BILIRUBIN: 0.13 mg/dL
  TOTAL PROTEIN: 6 G/DL
  URIC ACID: 1.17 mg/dL
